In ChEMBL document CHEMBL3991601, “The target landscape of clinical kinase drugs” (Science, 2017):
Calls of active or inactive are those of the source. Cut-off read from the data, not from the text of the source, for most assays here: actives have a measured Kd and inactives only a lower limit.

What was measured:
[1] = molecular target: Insulin-like growth factor 1 receptor (Homo sapiens, UniProt P08069)
[2] = molecular target: T1, Serine/threonine-protein kinase D3 (Homo sapiens, UniProt O94806)
T1 sequence (O94806 whole entry): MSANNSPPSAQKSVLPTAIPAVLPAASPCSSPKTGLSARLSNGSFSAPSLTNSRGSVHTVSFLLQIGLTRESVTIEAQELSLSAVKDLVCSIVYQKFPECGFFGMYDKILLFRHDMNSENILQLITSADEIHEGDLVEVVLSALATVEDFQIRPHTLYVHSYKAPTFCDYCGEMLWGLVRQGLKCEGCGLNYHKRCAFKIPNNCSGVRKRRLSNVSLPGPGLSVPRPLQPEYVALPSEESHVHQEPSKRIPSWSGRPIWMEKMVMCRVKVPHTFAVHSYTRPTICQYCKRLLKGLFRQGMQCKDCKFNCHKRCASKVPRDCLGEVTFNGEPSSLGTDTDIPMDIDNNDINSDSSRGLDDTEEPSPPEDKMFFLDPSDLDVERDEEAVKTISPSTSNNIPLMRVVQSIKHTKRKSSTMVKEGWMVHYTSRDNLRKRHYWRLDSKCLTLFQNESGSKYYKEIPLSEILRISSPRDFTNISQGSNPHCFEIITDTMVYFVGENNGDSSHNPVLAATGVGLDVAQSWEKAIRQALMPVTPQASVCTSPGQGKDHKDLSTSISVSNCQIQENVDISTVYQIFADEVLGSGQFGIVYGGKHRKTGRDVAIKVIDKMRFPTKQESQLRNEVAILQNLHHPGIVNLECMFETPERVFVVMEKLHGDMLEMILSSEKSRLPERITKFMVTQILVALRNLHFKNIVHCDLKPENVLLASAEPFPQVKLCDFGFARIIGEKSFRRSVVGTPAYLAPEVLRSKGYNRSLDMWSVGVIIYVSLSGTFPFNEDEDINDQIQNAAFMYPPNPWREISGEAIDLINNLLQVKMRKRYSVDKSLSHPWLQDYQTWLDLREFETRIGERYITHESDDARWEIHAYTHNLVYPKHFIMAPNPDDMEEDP

[3] = molecular target: Casein kinase I isoform alpha (Homo sapiens, UniProt P48729)
Sequence of Casein kinase I isoform alpha (P48729 whole entry, canonical isoform): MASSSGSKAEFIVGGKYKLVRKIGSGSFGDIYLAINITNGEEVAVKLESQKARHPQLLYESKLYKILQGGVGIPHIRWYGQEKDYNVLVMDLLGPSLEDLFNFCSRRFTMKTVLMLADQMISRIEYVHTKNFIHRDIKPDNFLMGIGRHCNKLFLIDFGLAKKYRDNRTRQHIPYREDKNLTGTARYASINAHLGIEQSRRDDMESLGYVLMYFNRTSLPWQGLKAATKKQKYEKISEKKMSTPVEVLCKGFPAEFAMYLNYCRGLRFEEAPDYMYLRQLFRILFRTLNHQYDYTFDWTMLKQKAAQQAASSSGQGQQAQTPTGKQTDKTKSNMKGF

[4] = molecular target: Serine/threonine-protein kinase PAK 4 (Homo sapiens, UniProt O96013)
Sequence of Serine/threonine-protein kinase PAK 4 (O96013 whole entry): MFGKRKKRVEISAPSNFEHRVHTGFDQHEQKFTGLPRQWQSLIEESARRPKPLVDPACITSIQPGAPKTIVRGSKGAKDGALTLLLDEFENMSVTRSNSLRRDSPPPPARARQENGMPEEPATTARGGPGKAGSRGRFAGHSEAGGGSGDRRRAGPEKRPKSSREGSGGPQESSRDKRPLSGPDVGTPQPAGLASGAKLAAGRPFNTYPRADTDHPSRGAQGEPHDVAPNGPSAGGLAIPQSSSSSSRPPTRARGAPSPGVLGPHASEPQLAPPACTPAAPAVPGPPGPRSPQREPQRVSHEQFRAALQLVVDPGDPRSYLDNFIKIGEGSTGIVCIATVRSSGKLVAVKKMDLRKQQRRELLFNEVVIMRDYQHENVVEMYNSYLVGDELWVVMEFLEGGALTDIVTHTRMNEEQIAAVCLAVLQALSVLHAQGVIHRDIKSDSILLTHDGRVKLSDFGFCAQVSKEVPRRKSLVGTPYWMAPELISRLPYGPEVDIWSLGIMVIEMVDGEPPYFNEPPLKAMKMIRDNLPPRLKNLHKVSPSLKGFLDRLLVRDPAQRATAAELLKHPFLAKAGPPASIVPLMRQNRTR

[5] = molecular target: Serine/threonine-protein kinase 26 (Homo sapiens, UniProt Q9P289)
Pyridoxal kinase = molecular target: T2, Pyridoxal kinase (Homo sapiens, UniProt O00764)
T2 sequence (O00764 whole entry): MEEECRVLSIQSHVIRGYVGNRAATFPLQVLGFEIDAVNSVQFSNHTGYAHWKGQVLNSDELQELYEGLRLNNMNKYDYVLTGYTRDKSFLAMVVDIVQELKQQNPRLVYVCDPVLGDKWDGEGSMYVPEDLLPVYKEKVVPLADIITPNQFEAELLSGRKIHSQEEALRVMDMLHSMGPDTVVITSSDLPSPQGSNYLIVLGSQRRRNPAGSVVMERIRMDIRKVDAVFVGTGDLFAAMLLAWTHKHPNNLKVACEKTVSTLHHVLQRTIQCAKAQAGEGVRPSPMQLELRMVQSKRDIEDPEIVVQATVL

[6] = molecular target: T3, MAP kinase-activated protein kinase 5 (Homo sapiens, UniProt Q8IW41)
T3 sequence (Q8IW41 whole entry): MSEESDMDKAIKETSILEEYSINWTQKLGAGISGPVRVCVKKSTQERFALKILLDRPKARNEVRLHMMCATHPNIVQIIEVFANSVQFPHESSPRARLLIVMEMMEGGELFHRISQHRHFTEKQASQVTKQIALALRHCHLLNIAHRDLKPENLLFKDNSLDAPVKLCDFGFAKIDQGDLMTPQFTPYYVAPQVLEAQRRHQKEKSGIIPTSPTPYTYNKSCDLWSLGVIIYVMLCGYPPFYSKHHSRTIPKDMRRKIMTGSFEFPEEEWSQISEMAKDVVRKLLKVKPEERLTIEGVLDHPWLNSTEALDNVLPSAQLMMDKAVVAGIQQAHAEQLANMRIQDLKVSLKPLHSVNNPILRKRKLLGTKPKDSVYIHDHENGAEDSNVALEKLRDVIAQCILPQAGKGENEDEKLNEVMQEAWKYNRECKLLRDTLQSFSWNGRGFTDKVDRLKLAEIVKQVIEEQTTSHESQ

[7] = molecular target: Chromodomain-helicase-DNA-binding protein 4 (Homo sapiens, UniProt Q14839)
[8] = molecular target: Tyrosine-protein kinase Fer (Homo sapiens, UniProt P16591)
Sequence of Tyrosine-protein kinase Fer (P16591 whole entry): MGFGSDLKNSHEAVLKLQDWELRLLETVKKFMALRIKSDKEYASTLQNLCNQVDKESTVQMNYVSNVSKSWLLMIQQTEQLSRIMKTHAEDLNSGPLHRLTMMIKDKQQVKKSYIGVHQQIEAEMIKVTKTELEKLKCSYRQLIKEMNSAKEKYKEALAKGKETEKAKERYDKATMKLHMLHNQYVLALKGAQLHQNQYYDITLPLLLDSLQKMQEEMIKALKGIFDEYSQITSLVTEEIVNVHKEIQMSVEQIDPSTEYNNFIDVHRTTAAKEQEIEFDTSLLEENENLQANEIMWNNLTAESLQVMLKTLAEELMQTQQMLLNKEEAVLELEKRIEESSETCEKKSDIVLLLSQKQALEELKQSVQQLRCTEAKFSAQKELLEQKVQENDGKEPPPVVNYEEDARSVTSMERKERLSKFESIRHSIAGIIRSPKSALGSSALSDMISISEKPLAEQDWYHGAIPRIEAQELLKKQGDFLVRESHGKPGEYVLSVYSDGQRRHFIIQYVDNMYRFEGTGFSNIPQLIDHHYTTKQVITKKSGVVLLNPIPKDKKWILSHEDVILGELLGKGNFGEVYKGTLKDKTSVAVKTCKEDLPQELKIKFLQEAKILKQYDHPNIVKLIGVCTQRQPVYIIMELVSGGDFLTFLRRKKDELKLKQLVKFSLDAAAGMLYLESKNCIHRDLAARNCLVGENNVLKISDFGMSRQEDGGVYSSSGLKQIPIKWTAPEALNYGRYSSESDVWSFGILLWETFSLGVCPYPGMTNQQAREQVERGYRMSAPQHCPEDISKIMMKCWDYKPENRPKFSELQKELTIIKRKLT

[9] = molecular target: ATP-dependent RNA helicase DDX3X (Homo sapiens, UniProt O00571)
Sequence of ATP-dependent RNA helicase DDX3X (O00571 whole entry): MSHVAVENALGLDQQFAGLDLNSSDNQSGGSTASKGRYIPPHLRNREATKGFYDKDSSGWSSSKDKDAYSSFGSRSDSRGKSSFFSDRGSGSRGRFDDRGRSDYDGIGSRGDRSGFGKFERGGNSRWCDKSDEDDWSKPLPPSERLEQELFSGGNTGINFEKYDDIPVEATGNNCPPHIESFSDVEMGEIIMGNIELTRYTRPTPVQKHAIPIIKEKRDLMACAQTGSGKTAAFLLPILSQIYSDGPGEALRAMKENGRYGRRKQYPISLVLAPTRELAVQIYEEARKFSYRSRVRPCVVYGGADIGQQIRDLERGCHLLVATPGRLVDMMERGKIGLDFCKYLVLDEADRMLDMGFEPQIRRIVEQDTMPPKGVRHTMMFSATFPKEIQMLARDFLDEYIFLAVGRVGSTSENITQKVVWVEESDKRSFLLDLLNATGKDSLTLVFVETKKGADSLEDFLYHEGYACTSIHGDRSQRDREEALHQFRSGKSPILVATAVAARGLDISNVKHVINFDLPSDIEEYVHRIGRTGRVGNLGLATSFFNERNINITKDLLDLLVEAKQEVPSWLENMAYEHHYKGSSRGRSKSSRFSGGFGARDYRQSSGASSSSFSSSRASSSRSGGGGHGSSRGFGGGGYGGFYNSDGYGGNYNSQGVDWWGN

Adenosine kinase = Adenosine kinase (Homo sapiens, UniProt P55263)
Sequence of Adenosine kinase (P55263 whole entry): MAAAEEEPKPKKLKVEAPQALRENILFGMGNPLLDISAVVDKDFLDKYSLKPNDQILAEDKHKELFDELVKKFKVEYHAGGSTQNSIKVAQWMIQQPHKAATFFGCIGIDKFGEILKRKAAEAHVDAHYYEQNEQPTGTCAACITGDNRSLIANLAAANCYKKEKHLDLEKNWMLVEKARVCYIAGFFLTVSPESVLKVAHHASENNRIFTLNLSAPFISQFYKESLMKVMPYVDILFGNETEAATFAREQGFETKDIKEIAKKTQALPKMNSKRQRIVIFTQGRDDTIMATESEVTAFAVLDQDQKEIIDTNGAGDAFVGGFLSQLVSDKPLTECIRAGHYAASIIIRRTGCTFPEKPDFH

[10] = molecular target: Tyrosine-protein kinase BTK (Homo sapiens, UniProt Q06187)
Sequence of Tyrosine-protein kinase BTK (Q06187 whole entry): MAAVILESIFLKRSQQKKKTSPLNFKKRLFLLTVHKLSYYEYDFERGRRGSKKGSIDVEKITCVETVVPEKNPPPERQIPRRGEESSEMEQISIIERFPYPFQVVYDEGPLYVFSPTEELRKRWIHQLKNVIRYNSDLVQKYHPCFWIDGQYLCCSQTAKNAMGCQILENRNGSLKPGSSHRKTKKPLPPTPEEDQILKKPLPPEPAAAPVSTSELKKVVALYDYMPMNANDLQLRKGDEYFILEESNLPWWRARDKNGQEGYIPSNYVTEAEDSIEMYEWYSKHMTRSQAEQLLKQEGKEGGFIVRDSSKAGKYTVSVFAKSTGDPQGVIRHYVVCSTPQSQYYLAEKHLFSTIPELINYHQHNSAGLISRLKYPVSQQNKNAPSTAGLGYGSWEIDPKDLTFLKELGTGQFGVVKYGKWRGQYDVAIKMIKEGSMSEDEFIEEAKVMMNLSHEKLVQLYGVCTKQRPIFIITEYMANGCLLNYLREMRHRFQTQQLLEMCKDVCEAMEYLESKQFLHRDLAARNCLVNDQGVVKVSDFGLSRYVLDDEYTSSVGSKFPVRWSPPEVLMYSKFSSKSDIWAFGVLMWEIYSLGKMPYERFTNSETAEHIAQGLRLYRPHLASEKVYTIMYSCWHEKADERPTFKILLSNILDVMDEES

[11] = molecular target: Mitogen-activated protein kinase kinase kinase kinase 5 (Homo sapiens, UniProt Q9Y4K4)
Sequence of Mitogen-activated protein kinase kinase kinase kinase 5 (Q9Y4K4 whole entry): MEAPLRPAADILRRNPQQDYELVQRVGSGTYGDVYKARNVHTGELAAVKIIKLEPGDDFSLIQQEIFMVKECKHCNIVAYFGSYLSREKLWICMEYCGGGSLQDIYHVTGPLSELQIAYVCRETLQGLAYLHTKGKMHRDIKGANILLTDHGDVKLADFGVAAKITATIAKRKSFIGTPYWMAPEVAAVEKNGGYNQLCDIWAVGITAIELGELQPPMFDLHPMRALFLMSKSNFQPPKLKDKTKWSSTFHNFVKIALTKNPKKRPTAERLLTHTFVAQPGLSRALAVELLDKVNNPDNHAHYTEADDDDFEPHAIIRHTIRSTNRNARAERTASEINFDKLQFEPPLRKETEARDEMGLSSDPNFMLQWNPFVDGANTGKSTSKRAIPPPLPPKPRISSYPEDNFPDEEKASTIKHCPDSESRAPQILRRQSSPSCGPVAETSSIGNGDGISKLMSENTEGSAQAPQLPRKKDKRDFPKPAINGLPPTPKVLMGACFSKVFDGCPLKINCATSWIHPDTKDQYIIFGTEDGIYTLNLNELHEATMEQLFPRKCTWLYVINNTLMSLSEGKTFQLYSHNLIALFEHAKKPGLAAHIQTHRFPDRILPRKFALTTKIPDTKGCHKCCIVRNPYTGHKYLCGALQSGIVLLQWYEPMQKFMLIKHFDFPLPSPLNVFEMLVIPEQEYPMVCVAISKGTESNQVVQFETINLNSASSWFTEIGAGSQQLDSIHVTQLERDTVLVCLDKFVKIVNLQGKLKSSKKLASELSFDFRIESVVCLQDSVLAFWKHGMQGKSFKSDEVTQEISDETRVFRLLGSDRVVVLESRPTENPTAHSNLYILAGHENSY

[12] = molecular target: Tyrosine-protein kinase FRK (Homo sapiens, UniProt P42685)
Sequence of Tyrosine-protein kinase FRK (P42685 whole entry): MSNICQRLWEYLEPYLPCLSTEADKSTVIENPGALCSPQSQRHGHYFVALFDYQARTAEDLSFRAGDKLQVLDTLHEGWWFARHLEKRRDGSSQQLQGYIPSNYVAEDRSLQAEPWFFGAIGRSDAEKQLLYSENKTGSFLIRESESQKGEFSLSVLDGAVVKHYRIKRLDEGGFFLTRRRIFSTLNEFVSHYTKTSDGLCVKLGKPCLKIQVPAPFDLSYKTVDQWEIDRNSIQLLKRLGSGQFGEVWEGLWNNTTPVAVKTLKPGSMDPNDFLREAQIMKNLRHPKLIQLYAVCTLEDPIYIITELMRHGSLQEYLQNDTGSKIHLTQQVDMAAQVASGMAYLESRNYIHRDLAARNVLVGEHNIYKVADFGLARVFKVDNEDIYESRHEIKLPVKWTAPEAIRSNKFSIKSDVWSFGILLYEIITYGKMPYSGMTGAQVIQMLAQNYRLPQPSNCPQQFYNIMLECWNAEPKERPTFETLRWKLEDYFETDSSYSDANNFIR

[13] = molecular target: T4, Calcium/calmodulin-dependent protein kinase type IV (Homo sapiens, UniProt Q16566)
T4 sequence (Q16566 whole entry): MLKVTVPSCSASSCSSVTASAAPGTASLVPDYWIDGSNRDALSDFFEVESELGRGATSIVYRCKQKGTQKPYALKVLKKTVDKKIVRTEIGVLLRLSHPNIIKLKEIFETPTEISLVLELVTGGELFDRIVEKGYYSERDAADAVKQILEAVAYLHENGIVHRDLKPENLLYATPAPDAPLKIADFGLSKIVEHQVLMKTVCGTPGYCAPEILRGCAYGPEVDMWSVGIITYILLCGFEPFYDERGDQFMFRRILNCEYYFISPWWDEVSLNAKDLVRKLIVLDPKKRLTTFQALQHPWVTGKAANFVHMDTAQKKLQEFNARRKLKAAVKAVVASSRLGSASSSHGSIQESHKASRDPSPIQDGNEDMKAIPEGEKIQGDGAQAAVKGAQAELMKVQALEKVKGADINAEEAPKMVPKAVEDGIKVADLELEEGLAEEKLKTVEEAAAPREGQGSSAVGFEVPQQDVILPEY
Note: in the data inactive means no Kd found up to 30 µM.

Structure (SMILES) | Kd [1] | Kd [2] | Kd [3] | Kd [4] | Kd [5] | Kd (Pyridoxal kinase) | Kd [6] | Kd [7] | Kd [8] | Kd [9] | Kd (Adenosine kinase) | Kd [10] | Kd [11] | Kd [12] | Kd [13]
COc1cc(CCc2cc(NC(=O)c3ccc(N4C[C@@H](C)N[C@@H](C)C4)cc3)n[nH]2)cc(OC)c1 [AZD-4547] | > 30 µM (inactive) | > 30 µM (inactive) | > 30 µM (inactive) | > 30 µM (inactive) | – | > 30 µM (inactive) | > 30 µM (inactive) | > 30 µM (inactive) | > 30 µM (inactive) | > 30 µM (inactive) | > 30 µM (inactive) | > 30 µM (inactive) | 0.006 µM (active) | > 30 µM (inactive) | > 30 µM (inactive)
Cc1ccc(NC(=O)c2ccc(CN3CC[C@H](N(C)C)C3)c(C(F)(F)F)c2)cc1Nc1nccc(-c2cncnc2)n1 [BAFETINIB] | > 30 µM (inactive) | > 30 µM (inactive) | – | > 30 µM (inactive) | > 30 µM (inactive) | > 30 µM (inactive) | > 30 µM (inactive) | > 30 µM (inactive) | > 30 µM (inactive) | > 30 µM (inactive) | > 30 µM (inactive) | > 30 µM (inactive) | > 30 µM (inactive) | 0.428 µM (active) | > 30 µM (inactive)
COc1cc2nccc(Oc3ccc(NC(=O)NC4CC4)c(Cl)c3)c2cc1C(N)=O [LENVATINIB] | > 30 µM (inactive) | > 30 µM (inactive) | > 30 µM (inactive) | > 30 µM (inactive) | – | > 30 µM (inactive) | > 30 µM (inactive) | > 30 µM (inactive) | – | > 30 µM (inactive) | > 30 µM (inactive) | – | – | > 30 µM (inactive) | > 30 µM (inactive)
C[C@@H](c1ccc2nccn2c1)n1nnc2ncc(-c3cnn(C)c3)nc21 [SAVOLITINIB] | > 30 µM (inactive) | > 30 µM (inactive) | > 30 µM (inactive) | > 30 µM (inactive) | > 30 µM (inactive) | > 30 µM (inactive) | > 30 µM (inactive) | – | > 30 µM (inactive) | > 30 µM (inactive) | > 30 µM (inactive) | > 30 µM (inactive) | > 30 µM (inactive) | > 30 µM (inactive) | –
CN1CCC(COc2cnc(-c3cccc(Cn4nc(-c5cccc(C#N)c5)ccc4=O)c3)nc2)CC1 [TEPOTINIB] | > 30 µM (inactive) | > 30 µM (inactive) | > 30 µM (inactive) | > 30 µM (inactive) | – | > 30 µM (inactive) | > 30 µM (inactive) | > 30 µM (inactive) | > 30 µM (inactive) | > 30 µM (inactive) | > 30 µM (inactive) | > 30 µM (inactive) | > 30 µM (inactive) | > 30 µM (inactive) | > 30 µM (inactive)

Second part, the compound after the results:

Kd [1] | Kd [2] | Kd [3] | Kd [4] | Kd [5] | Kd (Pyridoxal kinase) | Kd [6] | Kd [7] | Kd [8] | Kd [9] | Kd (Adenosine kinase) | Kd [10] | Kd [11] | Kd [12] | Kd [13] | Structure (SMILES)
> 30 µM (inactive) | > 30 µM (inactive) | > 30 µM (inactive) | > 30 µM (inactive) | > 30 µM (inactive) | > 30 µM (inactive) | > 30 µM (inactive) | > 30 µM (inactive) | > 30 µM (inactive) | > 30 µM (inactive) | > 30 µM (inactive) | > 30 µM (inactive) | > 30 µM (inactive) | > 30 µM (inactive) | – | N[C@@H]1CCCN(c2c(/C=C3\SC(=O)NC3=O)cccc2-c2ccccc2)C1
> 30 µM (inactive) | > 30 µM (inactive) | > 30 µM (inactive) | > 30 µM (inactive) | – | > 30 µM (inactive) | > 30 µM (inactive) | > 30 µM (inactive) | > 30 µM (inactive) | > 30 µM (inactive) | > 30 µM (inactive) | > 30 µM (inactive) | > 30 µM (inactive) | > 30 µM (inactive) | > 30 µM (inactive) | CNS(=O)(=O)Nc1nccc(Cc2c(C)c3ccc(Oc4ncccn4)cc3oc2=O)c1F [AVUTOMETINIB]
